Laboratory results: patent US20120122843A1, “Compounds and Their Use for Treatment of Amyloid Beta-Related Diseases” (ASTRAZENECA AB, priority 2010, published 2012)

Key:
Aβtotal = assay: Total Aβ release from HEK cells stably expressing APPswe (MSD, 6E10 and 4G8 antibodies); format: cell-based; details: Homo sapiens, HEK293, 4-6 h incubation with test compound, total Aβ secreted to cell medium
Protocol: The level of activity of the compounds on Aβ formation was tested using the following method:
Compounds were diluted in 100% DMSO and stored at […] prior to use. Human Embryonic Kidney (HEK) cell line stably expressing APP with the Swedish mutation (APPswe) were cultured using Dulbecco's Modified Eagles medium (DMEM) supplied with […] glucose, Na-pyruvate and GlutaMAX with 10% FBS, 100 U/ml penicillin-streptomycin (PEST) respectively, 1× non-essential amino acids (NEAA), […] Hepes, 100 μg/ml Zeocine. Cells at about 80% confluence were washed with PBS, detached from culture flasks using 1× Trypsin/EDTA diluted in PBS, re-suspended in cell media and plated in 384-well poly-d-lysine coated cell culture plates at about 10000-15000 cells/well, in 25 μL cell media. Optionally, cryo-preserved cells (frozen and stored at −140° C. in 90% cell media and 10% DMSO) were thawed, washed and plated as above. Next the cells were incubated for 15-24 h at 37° C. and 5% CO2, after which cell medium was changed. Fresh medium containing test compound diluted ×200 from prepared compound plate was added to the cells before further incubation for 4-6 hours at 37° C. and 5% CO2. After incubation with test compound the amount of Aβ peptides, including Aβ42, Aβ40, Aβ39, Aβ38 and Aβ37, as well as total Aβ levels, secreted to cell medium was analyzed using the electrochemiluminescence assay technology from Meso Scale Discovery (MSD), in combination with specific antibodies raised against the different Aβ peptides. Aβ42, Aβ40 and Aβ38 antibodies were purchased from MSD and Aβ37 and Aβ39 were made in house. Total Aβ was measured using a combination of 6E10 and 4G8 anti Aβ antibodies from MSD. Potential cytotoxic effects of the compounds were usually assayed by measuring the ATP content (ViaLight) from cell lysate.

Notch = assay: Release and translocation of Notch intracellular domain into the nucleus, HEK/AENotch cells (NICD immunostaining, ImageXpress); format: cell-based, Human; details: Homo sapiens, 3 μM Lactacystin, 4-6 h incubation, nucleus/cytosol NICD fluorescence ratio
How it was run: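 HEK cells overexpressing a Notch1-ΔE-myc construct were plated for 15–24 h, then treated 4–6 h with compound (typically up to 25 μM, 0.5% DMSO) plus 3 μM Lactacystin. Fixed cells were immunostained for NICD, and the nuclear/cytosolic fluorescence ratio was imaged. Cytotoxicity was judged by nucleus area or cell number.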

Aβ42 = Aβ42 release from HEK cells stably expressing APPswe (MSD electrochemiluminescence); format: cell-based, Human; details: 4-6 h incubation with test compound, Aβ42 secreted to cell medium
How it was run: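 HEK cells stably expressing APPswe, plated 15–24 h, then given compound in fresh medium (diluted ×200 from compound plate) for 4–6 h at 37 °C. Secreted Aβ in medium measured by MSD electrochemiluminescence; total Aβ via 6E10 plus 4G8 antibodies, Aβ42 via specific antibody. Cytotoxicity checked by ATP content of lysate.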

[1] = Homo sapiens, HEK293, HEK cells expressing APPswe

SMILES: COc1nc(Nc2ccc3c(n2)OC(CCC(F)(F)F)CN(C)C3)ccc1-n1cnc(C)c1 (stereo not drawn) [Example 28, [6-Methoxy-5-(4-methyl-imidazol-1-yl)-pyridin-2-yl]-[6-methyl-8-(3,3,3-trifluoro-propyl)-5,6,7,8-tetrahydro-9-oxa-1,6-diaza-benzocyclohepten-2-yl]-amine]
- IC50 (Aβtotal): > 1000 nM
- IC50 (Notch): > 25 µM
- IC50 (Aβ42; [1]): 7 nM

SMILES: COc1nc(Nc2ccc3c(n2)OC(CCC(F)(F)F)CN(C)C3)ccc1-n1cnc(C)c1 (single isomer, unassigned; (+)) [Example 61, (+)-[6-Methoxy-5-(4-methyl-imidazol-1-yl)-pyridin-2-yl]-[6-methyl-8-(3,3,3-trifluoro-propyl)-5,6,7,8-tetrahydro-9-oxa-1,6-diaza-benzocyclohepten-2-yl]-amine]
- IC50 (Aβtotal): > 1000 nM
- IC50 (Notch): > 25 µM
- IC50 (Aβ42; [1]): 3 nM

SMILES: COc1nc(Nc2ccc3c(n2)OC(c2nc(C)cs2)CN(C)C3)ccc1-n1cnc(C)c1 (stereo not drawn) [Example 12, N-(6-Methoxy-5-(4-methyl-1H-imidazol-1-yl)pyridin-2-yl)-4-methyl-2-(4-methylthiazol-2-yl)-2,3,4,5-tetrahydropyrido[3,2-f][1,4]oxazepin-8-amine]
- IC50 (Aβtotal): 1850 nM
- IC50 (Notch): > 25 µM
- IC50 (Aβ42; [1]): 13 nM

SMILES: COc1nc(Nc2ccc3c(n2)OC(CC(F)(F)F)CN(C)C3)ccc1-c1cnn(C)c1 (single isomer, unassigned; (+)) [Example 4, (+)-N-(6-Methoxy-5-(1-methyl-1H-pyrazol-4-yl)pyridin-2-yl)-4-methyl-2-(2,2,2-trifluoroethyl)-2,3,4,5-tetrahydropyrido[3,2-f][1,4]oxazepin-8-amine]
- IC50 (Aβtotal): 512 nM
- IC50 (Notch): > 25 µM
- IC50 (Aβ42; HEK cells expressing APPswe): 9 nM

SMILES: COc1nc(Nc2ccc3c(n2)OC(CC(CF)CF)CN(C)C3)ccc1-n1cnc(C)c1 (stereo not drawn) [Example 32, [8-(3-Fluoro-2-fluoromethyl-propyl)-6-methyl-5,6,7,8-tetrahydro-9-oxa-1,6-diaza-benzocyclohepten-2-yl]-[6-methoxy-5-(4-methyl-imidazol-1-yl)-pyridin-2-yl]-amine]
- IC50 (Aβtotal): > 5000 nM
- IC50 (Notch): > 7.9 µM
- IC50 (Aβ42; [1]): 7 nM

SMILES: COc1nc(Nc2ccc3c(n2)OC(C2CC(F)(F)C2)CN(C)C3)ccc1-c1cnn(C)c1 (single isomer, unassigned) [Example 37, 2-(3,3-Difluorocyclobutyl)-N-(6-methoxy-5-(1-methyl-1H-pyrazol-4-yl)pyridin-2-yl)-4-methyl-2,3,4,5-tetrahydropyrido[3,2-f][1,4]oxazepin-8-amine]
- IC50 (Aβtotal): > 1000 nM
- IC50 (Notch): > 25 µM
- IC50 (Aβ42; HEK cells expressing APPswe): 4 nM

SMILES: COc1nc(Nc2ccc3c(n2)OC(CC(F)(F)F)CN(C)C3C)ccc1-c1cnn(C)c1 (single isomer, unassigned) [Example 33, N-(6-Methoxy-5-(1-methyl-1H-pyrazol-4-yl)pyridin-2-yl)-4,5-dimethyl-2-(2,2,2-trifluoroethyl)-2,3,4,5-tetrahydropyrido[3,2-f][1,4]oxazepin-8-amine]
- IC50 (Aβtotal): > 5000 nM
- IC50 (Notch): > 25 µM
- IC50 (Aβ42; [1]): 8 nM
